Measured values reported in ChEMBL document CHEMBL1201862, “PubChem BioAssay data set” (2004).
Active and inactive are the calls of the source.

Tests used:
[1] = molecular target: T1, Type-1 angiotensin II receptor (Homo sapiens, UniProt P30556); test: agonist activity at AGTR1 – cell-based, uHTS hits, selectivity assay for APJ receptor agonist project, dose response (AID 488865); assay type: functional;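 note: beta-arrestin recruitment to AT1 measured by enzyme fragment complementation luminescence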
T1 sequence (P30556 whole entry): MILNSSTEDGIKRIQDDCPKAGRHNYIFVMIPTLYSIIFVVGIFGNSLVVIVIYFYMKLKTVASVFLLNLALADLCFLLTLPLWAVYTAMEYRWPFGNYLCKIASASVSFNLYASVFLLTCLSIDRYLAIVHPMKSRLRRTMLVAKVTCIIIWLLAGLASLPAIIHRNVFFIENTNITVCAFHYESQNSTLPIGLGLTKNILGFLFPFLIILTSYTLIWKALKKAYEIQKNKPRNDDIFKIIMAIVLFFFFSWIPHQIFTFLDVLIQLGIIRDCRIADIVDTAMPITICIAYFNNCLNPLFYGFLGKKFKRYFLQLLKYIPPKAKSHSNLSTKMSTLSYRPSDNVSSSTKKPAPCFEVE

[2] = molecular target: T2, Tyrosine-protein phosphatase non-receptor type 7 (Homo sapiens, UniProt P35236); test: SAR analysis of chemical inhibitors of HePTP using a Fluorescent assay - Set 2. [Related pubchem assays (depositor defined):AID1059, AID1077, AID1661, AID2085, AID521]; assay type: functional
T2 sequence (P35236 whole entry): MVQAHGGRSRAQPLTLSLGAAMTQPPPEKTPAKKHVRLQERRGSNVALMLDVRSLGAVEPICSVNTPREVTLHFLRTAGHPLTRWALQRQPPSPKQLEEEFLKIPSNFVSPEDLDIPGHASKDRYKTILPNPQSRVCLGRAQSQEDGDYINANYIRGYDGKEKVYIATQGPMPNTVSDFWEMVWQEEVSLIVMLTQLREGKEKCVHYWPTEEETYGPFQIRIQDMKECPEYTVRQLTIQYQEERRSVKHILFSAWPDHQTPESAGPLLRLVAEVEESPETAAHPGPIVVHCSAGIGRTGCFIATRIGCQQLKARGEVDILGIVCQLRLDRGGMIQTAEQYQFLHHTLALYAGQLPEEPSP

[3] = molecular target: Dual specificity protein phosphatase 3 (Homo sapiens, UniProt P51452); test: SAR VHR1 Fluorescent Assay for In Vitro dose response studies Set 2. [Related pubchem assays (depositor defined):AID1654, AID1661, AID1878]; assay type: functional
Streptococcus = test: GAS UMAA2166 growth inhibition – luminescence, BacTiterGlo, counter-screen for streptokinase expression inhibitor project, dose response (AID 1915); assay type: functional, organism-based;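 note: potency for reduction of bacterial viability or growth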
Protein skinhead-1 = molecular target: T3, Protein skinhead-1 (Caenorhabditis elegans, UniProt P34707); assay type: functional
T3 sequence (P34707 whole entry): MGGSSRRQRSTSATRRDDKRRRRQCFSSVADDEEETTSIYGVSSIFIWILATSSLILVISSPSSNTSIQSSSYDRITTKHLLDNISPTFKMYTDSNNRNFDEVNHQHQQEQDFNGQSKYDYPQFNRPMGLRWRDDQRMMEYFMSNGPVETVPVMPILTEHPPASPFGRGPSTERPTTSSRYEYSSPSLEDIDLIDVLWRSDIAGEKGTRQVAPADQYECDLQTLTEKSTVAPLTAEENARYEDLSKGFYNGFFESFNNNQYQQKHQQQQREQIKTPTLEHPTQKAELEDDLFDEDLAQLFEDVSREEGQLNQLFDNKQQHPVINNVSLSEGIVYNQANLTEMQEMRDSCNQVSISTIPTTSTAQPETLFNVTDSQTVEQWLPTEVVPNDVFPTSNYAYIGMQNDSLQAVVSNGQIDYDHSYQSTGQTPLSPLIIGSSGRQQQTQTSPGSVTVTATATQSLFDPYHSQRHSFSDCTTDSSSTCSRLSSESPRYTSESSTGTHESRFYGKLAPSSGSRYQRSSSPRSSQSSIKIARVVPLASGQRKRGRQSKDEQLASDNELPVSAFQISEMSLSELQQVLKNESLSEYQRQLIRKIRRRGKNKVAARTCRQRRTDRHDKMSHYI

[4] = molecular target: T4, Short transient receptor potential channel 4 (Mus musculus, UniProt Q9QUQ5); test: potentiation of DAMGO-evoked TRPC4 calcium signal – cell-based, HEK293 TRPC4/mu-opioid, Fluo-4 calcium, EC20 DAMGO, dose response (AID 434941); assay type: functional
T4 sequence (Q9QUQ5 whole entry): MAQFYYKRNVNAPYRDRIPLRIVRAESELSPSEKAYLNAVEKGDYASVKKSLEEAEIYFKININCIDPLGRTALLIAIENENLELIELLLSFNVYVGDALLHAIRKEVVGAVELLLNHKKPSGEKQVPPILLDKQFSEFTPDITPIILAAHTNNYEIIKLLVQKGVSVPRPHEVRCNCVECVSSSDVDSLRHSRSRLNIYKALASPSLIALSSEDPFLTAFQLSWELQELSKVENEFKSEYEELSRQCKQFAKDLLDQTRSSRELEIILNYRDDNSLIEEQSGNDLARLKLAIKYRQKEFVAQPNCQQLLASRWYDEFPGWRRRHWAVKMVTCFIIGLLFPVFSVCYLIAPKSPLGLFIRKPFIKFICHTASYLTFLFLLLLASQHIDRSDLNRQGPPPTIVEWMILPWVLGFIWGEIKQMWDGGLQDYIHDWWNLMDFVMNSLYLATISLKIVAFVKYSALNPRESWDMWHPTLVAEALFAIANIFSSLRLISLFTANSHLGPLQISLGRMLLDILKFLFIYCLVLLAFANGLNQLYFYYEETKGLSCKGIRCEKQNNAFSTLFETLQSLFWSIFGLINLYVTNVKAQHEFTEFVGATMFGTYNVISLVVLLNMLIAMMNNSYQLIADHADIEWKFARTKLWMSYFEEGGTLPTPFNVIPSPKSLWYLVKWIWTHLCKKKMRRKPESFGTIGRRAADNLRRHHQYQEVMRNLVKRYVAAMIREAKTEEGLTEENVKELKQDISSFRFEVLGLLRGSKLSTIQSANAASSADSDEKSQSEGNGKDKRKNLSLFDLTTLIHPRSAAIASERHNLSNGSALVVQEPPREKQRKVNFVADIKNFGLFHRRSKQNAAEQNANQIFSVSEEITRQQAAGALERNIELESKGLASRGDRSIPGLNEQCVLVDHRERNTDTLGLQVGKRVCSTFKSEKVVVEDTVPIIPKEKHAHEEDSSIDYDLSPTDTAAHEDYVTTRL

[5] = molecular target: T4, Short transient receptor potential channel 4; test: calcium entry via TRPC4 opening agents – cell-based, HEK293 TRPC4/mu-opioid, Fluo-4 calcium, dose response (AID 434937); assay type: functional
[6] = system: Streptococcus sp. 'group A'; test: Streptococcus pyogenes SK(-)GAS viability under kanamycin – luminescence, BacTiterGlo, confirmation, counter-screen for streptokinase expression inhibitor project, dose response (AID 1900); assay type: functional, organism-based
Streptokinase A = molecular target: T5, Streptokinase A (Streptococcus pyogenes serotype M1, UniProt P10520); test: viability-normalized secreted streptokinase activity reduction – plasminogen activation absorbance, OD405, dose response (AID 1914); assay type: functional, Streptococcus pyogenes M1 GAS;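 note: secreted streptokinase activity via plasminogen activation per viability signal from cell pellet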
T5 sequence (P10520 whole entry): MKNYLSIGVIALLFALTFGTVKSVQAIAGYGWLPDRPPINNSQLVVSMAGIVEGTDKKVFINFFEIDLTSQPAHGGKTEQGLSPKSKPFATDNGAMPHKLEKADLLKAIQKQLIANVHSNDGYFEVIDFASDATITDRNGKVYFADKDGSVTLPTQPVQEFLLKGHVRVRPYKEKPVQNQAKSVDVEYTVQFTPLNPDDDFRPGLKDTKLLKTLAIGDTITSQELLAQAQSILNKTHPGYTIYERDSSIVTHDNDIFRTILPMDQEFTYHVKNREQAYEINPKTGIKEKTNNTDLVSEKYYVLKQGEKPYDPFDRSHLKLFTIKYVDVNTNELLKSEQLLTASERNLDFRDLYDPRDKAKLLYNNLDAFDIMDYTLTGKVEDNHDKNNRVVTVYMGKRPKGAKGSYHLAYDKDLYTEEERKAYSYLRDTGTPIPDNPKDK

Coagulation factor XII = molecular target: T6, Coagulation factor XII (Homo sapiens, UniProt P00748); test: activated coagulation factor XII inhibitor potency, concentration-effect curve, cell-free (AID 716); assay type: functional
T6 sequence (P00748 whole entry): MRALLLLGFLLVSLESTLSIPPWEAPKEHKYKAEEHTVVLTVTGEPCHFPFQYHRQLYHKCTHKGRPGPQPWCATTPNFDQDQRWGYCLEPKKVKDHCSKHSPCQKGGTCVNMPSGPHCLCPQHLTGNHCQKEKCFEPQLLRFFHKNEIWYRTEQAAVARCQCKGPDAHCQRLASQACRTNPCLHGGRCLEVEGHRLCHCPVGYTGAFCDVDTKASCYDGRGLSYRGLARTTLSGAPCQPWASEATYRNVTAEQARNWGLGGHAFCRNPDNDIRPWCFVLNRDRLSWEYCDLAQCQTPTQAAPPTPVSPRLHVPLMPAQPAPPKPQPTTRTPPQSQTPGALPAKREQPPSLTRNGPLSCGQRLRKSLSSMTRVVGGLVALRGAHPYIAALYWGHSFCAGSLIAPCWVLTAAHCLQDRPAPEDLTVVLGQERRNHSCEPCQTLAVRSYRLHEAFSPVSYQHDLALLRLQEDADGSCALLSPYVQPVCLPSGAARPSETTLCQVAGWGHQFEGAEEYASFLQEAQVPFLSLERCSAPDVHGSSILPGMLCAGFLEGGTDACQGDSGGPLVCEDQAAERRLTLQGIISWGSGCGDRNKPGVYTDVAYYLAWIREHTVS

[7] = molecular target: T7, Kappa-type opioid receptor (Homo sapiens, UniProt P41145); test: SAR analysis of small molecule antagonists of the kappa opioid receptor via a luminescent beta-arrestin assay - Set 3. [Related pubchem assays (depositor defined):AID1777, AID1778, AID1785, AID1786, AID1966, AID2133, AID2136, AID2285, AID2495]; assay type: functional
Mu-type opioid receptor = Mu-type opioid receptor (Homo sapiens, UniProt P35372); test: SAR Analysis of Antagonists of the MOR Receptor using an Image-Based Assay - Set 3. [Related pubchem assays (depositor defined):AID1777, AID1785, AID1786, AID1966, AID2133, AID2136, AID2284, AID2285, AID2420]; assay type: functional
[8] = molecular target: T7, Kappa-type opioid receptor; test: SAR analysis of Antagonists of the Kappa Opioid Receptor (KOR) using an Image-Based Assay - Set 3. [Related pubchem assays (depositor defined):AID1777, AID1785]; assay type: functional
[9] = molecular target: Delta-type opioid receptor (Homo sapiens, UniProt P41143); test: SAR Analysis of Antagonists of the DOR Receptor using an Image-Based Assay - Set 3. [Related pubchem assays (depositor defined):AID1777, AID1785]; assay type: functional;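 note: U2OS cells expressing DOR1 and beta-arrestin GFP stimulated with 100 nM SNC80; imaging of GFP-tagged beta-arrestin moving into spots after receptor activation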
T-cell = test: loss of vesicle association with mouse CD8+ T cells – mouse 2C CD8+ T cells, flow cytometry, dose response (AID 485284); assay type: functional
[10] = molecular target: DNA dC->dU-editing enzyme APOBEC-3A (Homo sapiens, UniProt P31941); test: Dose Response confirmation of small molecule APOBEC3A DNA Deaminase Inhibitors via a fluorescence-based single-stranded DNA deaminase assay. [Related pubchem assays (depositor defined):AID493011, AID493024]; assay type: functional
BJ [11] = test: cells; assay type: functional, cell-based; details: Homo sapiens
[12] = HEK-293T viability loss after treatment – luminescence, T-cell screen hits, cytotoxicity control for TCR NF-kB inhibitor project, dose response (AID 489026); assay type: functional, cell-based;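 note: cells exposed to compound about 14 hours before the viability readout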
[13] = microbe, parasite or virus in culture; assay type: functional; details: Mycobacterium tuberculosis
BJ [14] = test: BJ-TERT fibroblast viability loss – cell-based, RAS-independent, luminescence, dose response (AID 1933); assay type: functional; details: Homo sapiens
[15] = DRD fibroblast viability loss – cell-based, non-viral oncogenic, luminescence, dose response (AID 1934); assay type: functional; details: Homo sapiens
[16] = molecular target: FAD-linked sulfhydryl oxidase ALR (Homo sapiens, UniProt P55789); test: ALR-catalysed DTT oxidation blockers – biochemical, H2O2 detection, luminescence, cherry-pick, dose response (AID 493248)
BJ [17] = test: BJ-TERT-LT-ST fibroblast viability loss – cell-based, RAS-independent, luminescence, dose response (AID 1935); assay type: functional; details: Homo sapiens;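 note: BJ fibroblasts immortalized with TERT plus LT and ST oncogenes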
[18] = molecular target: DNA dC->dU-editing enzyme APOBEC-3G (Homo sapiens, UniProt Q9HC16); assay type: functional;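 note: Dose-response counterscreen measuring inhibition of APOBEC3G DNA deaminase activity, run while confirming APOBEC3A inhibitors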
Chain of DNA dC->dU-editing enzyme APOBEC-3G (Q9HC16 whole entry): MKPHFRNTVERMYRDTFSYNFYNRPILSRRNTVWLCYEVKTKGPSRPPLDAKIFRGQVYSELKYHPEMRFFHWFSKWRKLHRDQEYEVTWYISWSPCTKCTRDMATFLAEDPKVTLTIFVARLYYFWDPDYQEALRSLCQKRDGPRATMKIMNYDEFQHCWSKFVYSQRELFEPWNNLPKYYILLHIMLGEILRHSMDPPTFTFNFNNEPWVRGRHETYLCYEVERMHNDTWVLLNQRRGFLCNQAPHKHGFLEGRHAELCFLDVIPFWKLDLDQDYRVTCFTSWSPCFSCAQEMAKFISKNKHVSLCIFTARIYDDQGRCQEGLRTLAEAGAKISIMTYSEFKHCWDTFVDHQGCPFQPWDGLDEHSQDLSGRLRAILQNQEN

T7 sequence (P41145 whole entry): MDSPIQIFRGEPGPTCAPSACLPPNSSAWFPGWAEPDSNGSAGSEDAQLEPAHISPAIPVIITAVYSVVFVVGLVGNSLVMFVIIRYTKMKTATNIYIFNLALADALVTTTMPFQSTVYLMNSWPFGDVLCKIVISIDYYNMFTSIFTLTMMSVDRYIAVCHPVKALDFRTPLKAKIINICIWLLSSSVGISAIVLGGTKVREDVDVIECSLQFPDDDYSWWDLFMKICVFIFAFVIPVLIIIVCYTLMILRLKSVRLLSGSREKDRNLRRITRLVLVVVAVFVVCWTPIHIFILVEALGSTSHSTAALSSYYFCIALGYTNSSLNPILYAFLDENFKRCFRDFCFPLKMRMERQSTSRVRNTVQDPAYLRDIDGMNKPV
Chain of FAD-linked sulfhydryl oxidase ALR (P55789 whole entry): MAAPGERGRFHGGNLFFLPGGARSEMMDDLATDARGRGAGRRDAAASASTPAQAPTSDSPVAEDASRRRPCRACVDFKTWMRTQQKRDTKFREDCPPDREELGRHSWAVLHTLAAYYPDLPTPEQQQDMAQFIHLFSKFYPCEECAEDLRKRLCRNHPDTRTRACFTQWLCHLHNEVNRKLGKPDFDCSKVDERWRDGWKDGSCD
Chain of Mu-type opioid receptor (P35372 whole entry): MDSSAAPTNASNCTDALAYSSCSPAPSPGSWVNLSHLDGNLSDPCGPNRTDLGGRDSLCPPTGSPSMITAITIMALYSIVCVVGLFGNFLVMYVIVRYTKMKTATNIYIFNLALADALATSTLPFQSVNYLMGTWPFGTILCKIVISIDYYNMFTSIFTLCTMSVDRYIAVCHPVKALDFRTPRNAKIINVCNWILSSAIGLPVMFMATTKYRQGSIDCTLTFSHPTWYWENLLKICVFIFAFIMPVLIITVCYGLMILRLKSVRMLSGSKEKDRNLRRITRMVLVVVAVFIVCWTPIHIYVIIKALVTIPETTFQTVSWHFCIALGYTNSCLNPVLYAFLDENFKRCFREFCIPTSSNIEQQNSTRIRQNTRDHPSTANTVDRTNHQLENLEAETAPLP
Chain of DNA dC->dU-editing enzyme APOBEC-3A (P31941 whole entry): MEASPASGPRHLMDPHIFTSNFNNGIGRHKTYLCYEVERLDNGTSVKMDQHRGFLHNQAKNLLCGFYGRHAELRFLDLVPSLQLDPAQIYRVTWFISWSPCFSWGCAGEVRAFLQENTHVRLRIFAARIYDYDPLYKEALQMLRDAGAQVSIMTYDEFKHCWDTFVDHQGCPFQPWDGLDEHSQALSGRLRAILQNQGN
Chain of Dual specificity protein phosphatase 3 (P51452 whole entry): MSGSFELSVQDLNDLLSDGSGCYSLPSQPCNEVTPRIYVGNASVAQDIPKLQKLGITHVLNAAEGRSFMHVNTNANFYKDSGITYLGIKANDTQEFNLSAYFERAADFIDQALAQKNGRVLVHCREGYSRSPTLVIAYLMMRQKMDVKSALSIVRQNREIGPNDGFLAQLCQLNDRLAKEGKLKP
Chain of Delta-type opioid receptor (P41143 whole entry): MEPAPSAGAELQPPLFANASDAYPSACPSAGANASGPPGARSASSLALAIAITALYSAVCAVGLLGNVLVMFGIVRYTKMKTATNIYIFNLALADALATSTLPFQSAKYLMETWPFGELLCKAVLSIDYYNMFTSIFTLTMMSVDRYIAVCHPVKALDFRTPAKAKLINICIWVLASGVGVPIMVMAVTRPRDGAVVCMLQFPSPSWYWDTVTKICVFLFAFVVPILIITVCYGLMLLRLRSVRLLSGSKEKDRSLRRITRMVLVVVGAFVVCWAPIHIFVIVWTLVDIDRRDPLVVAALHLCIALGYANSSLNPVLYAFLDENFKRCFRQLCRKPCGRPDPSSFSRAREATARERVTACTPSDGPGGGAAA

SMILES: CC1(OC(=O)C2CCCC2)C(=O)C=C2C=C(c3ccsc3)N(C3CCCC3)C=C2C1=O (stereo not given)
- EC50 [1]: > 100 µM (inactive)

SMILES: C=CCn1c(N)c(C(=O)N2CCN(C)CC2)sc1=S
- IC50 [2]: 77.7 µM (active)
- IC50 [3]: 61.2 µM (active)

SMILES: COc1cc(/C=C2/SC(=S)N(Cc3ccccc3)C2=O)cc(Cl)c1O
- EC50 (Streptococcus): 5.86 µM (active)
- IC50 (Protein skinhead-1): > 100 µM (inactive)
- EC50 [4]: 1.5 µM (active)
- EC50 [5]: 5.31 µM (active)
- EC50 [6]: 5.2 µM (active)
- EC50 (Streptokinase A): > 150 µM (not active)

SMILES: CCC(c1nnnn1Cc1ccc2c(c1)OCO2)N1CCN(c2ccc(F)cc2)CC1 (stereo not given)
- IC50 (Coagulation factor XII): > 50 µM (inactive)
- IC50 (Protein skinhead-1): > 100 µM (inactive)

SMILES: Cc1ccc(S(=O)(=O)NCc2ccc(C(=O)NCCN(Cc3ccccc3)Cc3ccccc3)cc2)cc1
- IC50 [7]: 16.2 µM (inactive)
- IC50 (Mu-type opioid receptor): > 32 µM (inactive)
- IC50 [8]: 7.47 µM (active)
- IC50 [9]: > 32 µM (inactive)

SMILES: O=C(Cn1cc(C(F)(F)F)cc(Cl)c1=O)NCCc1ccc(Cl)cc1Cl
- EC50 (T-cell): 7.63 µM (active)

SMILES: CC(C)CC[n+]1ccccc1C=Cc1ccc(N(C)C)cc1
- IC50 [10]: 6.84 µM (active)
- EC50 (BJ [11]): 15.5 µM (active)
- IC50 [12]: > 80 µM (inactive)
- CC50 [13]: > 40 µM (active)
- EC50 (BJ [14]): 3.6 µM (active)
- EC50 [15]: 22.8 µM (inconclusive)
- AC50 [16]: 1.36 µM (active)
- EC50 (BJ [17]): > 150 µM (inconclusive)
- IC50 [18]: 19.3 µM (active)
